These results are taken from patent US9115092B2, “Substituted quinazoline and pyrido-pyrimidine derivatives” (Asana Biosciences, LLC, priority 2010, dated 2015).

The target in experiment [1] is T1, PI3Kα (wild-type), P110/P85α (Homo sapiens, UniProt P42336).
T1 construct: made in house; host or cells: SF9 insect cells
Briefly: PI3 Kinase TR-FRET assay, PI3Kα (wild-type). Type of experiment: biochemical. The method in brief: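 TR-FRET read-out of PIP3 formation via biotin-PIP3 displacement (665/615 nm ratio) gave IC50 curves. Enzyme: 5 ng wild-type P110/P85α from Sf9 cells, 60 min RT with compound and PIP2 (MgCl2 40 mM, DTT 5 mM), then 30 min RT kinase reaction at 10 μM ATP and 10 μM PIP2.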

The next experiment addresses T2, mTOR kinase (Homo sapiens, UniProt P42345).
T2 construct: purchased Millipore, USA
Briefly: mTOR kinase TR-FRET assay. Type of experiment: biochemical. The note with it: read-out: mTO R. The method in brief:
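TR-FRET read-out (340 nm excitation, 615/665 nm emission) of Thr389 phosphorylation of a ULight-labeled p70 S6K peptide (50 nM) by mTOR, 20 μM ATP, 60 min room temperature after 60 min compound preincubation. Buffer HEPES pH 7.5 with MnCl2, EGTA; IC50 by sigmoidal dose-response.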

The next experiment has as its system PC3 cells. Briefly: XTT assay for cell viability, PC3 cells. Type of experiment: cell-based, human. The note with it: Homo sapiens, PC-3, cell viability. As for the experimental part:
Using a commercial kit from Sigma Aldrich (Catalog #X34251) and following its protocol, PC3 cells in the log phase of growth were employed and seeded at an optimal density of 1000 cell/well on to 96 well plates and incubated for 24 h followed by the addition of compounds of formula (I) in serial dilutions. Compound dilutions were made in DMSO. The cells were incubated with the compounds of formula (I) for 96 h and XTT tetrazolium dye (Sigma, USA) was subsequently added and incubated at 37° C. After the color formation, absorbance was measured at 465 nm in a Spectramax® Gemini spectrophotometer. EC50 values were calculated using a sigmoidal dose response curve fit in GraphPad Prism® v5 software. The tested compounds of formula (I) which caused inhibition of PC3 cell proliferation as determined by this assay protocol are shown in Table 2.

Each structure is given as a SMILES string. A value given as a limit tells only on which side of the number the result lay.

T1 sequence (P42336 whole entry): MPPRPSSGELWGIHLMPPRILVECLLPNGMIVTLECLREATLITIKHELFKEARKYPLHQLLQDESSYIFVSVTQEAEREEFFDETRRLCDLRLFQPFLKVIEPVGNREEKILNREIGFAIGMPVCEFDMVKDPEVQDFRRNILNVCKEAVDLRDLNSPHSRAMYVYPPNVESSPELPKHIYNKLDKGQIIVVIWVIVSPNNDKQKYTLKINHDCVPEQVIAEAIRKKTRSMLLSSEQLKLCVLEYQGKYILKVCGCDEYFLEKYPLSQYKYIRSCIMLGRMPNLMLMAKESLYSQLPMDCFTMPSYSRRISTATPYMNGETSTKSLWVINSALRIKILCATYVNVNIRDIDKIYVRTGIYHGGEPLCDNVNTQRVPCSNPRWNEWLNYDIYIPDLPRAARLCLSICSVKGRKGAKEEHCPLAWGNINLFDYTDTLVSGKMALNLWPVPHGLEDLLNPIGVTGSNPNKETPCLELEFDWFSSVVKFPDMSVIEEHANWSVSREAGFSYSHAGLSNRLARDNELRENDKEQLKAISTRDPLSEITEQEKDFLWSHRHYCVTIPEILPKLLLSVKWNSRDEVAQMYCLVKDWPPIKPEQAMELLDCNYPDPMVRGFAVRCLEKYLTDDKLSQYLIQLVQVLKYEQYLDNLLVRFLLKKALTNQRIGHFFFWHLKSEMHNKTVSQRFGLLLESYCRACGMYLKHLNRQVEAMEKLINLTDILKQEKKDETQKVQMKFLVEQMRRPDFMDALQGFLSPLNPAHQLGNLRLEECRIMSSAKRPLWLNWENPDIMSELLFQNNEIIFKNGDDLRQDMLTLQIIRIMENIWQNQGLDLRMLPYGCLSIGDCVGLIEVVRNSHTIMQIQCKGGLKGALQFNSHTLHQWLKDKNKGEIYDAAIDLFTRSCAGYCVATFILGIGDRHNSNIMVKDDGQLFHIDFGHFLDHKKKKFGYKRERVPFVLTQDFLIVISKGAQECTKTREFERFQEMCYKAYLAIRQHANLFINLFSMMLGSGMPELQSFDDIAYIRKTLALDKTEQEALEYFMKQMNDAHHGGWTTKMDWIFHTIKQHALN
T1 sequence (P27986 whole entry partner): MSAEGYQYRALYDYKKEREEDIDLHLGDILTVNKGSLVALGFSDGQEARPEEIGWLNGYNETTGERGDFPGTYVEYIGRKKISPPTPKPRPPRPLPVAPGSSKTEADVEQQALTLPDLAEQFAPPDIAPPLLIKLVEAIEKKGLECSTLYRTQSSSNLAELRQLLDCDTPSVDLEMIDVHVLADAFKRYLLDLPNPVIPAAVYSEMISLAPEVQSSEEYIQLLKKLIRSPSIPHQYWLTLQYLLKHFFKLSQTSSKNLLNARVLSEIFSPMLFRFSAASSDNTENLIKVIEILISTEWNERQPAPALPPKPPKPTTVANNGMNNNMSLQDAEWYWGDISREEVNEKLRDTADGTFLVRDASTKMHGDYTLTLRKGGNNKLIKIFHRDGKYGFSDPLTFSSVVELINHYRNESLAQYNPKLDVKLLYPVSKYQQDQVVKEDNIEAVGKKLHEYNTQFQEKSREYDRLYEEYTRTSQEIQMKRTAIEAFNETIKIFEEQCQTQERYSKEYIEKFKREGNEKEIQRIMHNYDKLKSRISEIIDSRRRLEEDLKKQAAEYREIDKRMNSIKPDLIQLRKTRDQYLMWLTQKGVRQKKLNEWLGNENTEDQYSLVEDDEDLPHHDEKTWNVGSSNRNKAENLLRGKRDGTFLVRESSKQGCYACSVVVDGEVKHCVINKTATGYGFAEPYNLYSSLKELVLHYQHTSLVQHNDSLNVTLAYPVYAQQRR

With `CN(C)C(=O)c1ccc(NC(=O)Nc2ccc(-c3nc(N4CCOCC4)c4ccc(-c5cccc(S(C)(=O)=O)c5)cc4n3)cc2)cn1` [Example 31, 5-(3-{4-[7-(3-methanesulfonyl-phenyl)-4-morpholin-4-yl-quinazolin-2-yl]-phenyl}-ureido)-pyridine-2-carboxylic acid dimethylamide], the IC50 in experiment [1] was 50 to 200 nM; on mTOR kinase it was less than 50 nM; with PC3 cells, 100 to 500 nM.

As to `CN1CCN(C(=O)c2ccc(NC(=O)Nc3ccc(-c4nc(N5CCOCC5)c5ccc(-c6cccc(S(C)(=O)=O)c6)cc5n4)cc3)cc2)CC1` [Example 32, 1-(4-(4-methylpiperazine-1-carbonyl)phenyl)-3-(4-(7-(3-(methylsulfonyl)phenyl)-4-morpholino-quinazolin-2-yl)phenyl)urea], the IC50 in experiment [1] is less than 50 nM; at mTOR kinase, less than 50 nM; with PC3 cells, 501 to 5000 nM.

Consider `CN(C)C(=O)c1ccc(NC(=O)Nc2ccc(-c3nc(N4CCOCC4)c4ccc(-c5cncc(S(C)(=O)=O)c5)cc4n3)cc2)cc1` [Example 34, 4-(3-{4-[7-(5-methanesulfonyl-pyridin-3-yl)-4-morpholin-4-yl-qinazolin-2-yl]-phenyl}-ureido)-N,N-dimethyl-benzamide], for which the IC50 was less than 50 nM in experiment [1], less than 50 nM on mTOR kinase and less than 100 nM in the experiment with PC3 cells.

With `CN(C)C(=O)c1ccc(NC(=O)Nc2ccc(-c3nc(N4CCOCC4)c4cc(F)c(-c5cccc(S(C)(=O)=O)c5)cc4n3)cc2)cc1` [Example 36, 4-(3-{4-[6-fluoro-7-(3-methanesulfonyl-phenyl)-4-morpholin-4-yl-quinazolin-2-yl]-phenyl}-ureido)-N,N-dimethyl-benzamide], the IC50 in experiment [1] was less than 50 nM; at mTOR kinase it was less than 50 nM; in the experiment on PC3 cells, less than 100 nM.

Turning to `CN1CCN(C(=O)c2ccc(NC(=O)Nc3ccc(-c4nc(N5CCOCC5)c5ccc(-c6ccsc6)cc5n4)cc3)cc2)CC1` [Example 37, 1-[4-(4-methyl-piperazine-1-carbonyl)-phenyl]-3-[4-(4-morpholin-4-yl-7-thiophen-3-yl-quinazolin-2-yl)-phenyl]-urea], the IC50 fell in the range of 50 to 200 nM in experiment [1], 50 to 200 nM at mTOR kinase and 100 to 500 nM with PC3 cells.

For the compound `CN(C)C(=O)c1ccc(NC(=O)Nc2ccc(-c3nc(N4CCOCC4)c4cc(F)c(-c5cncc(S(C)(=O)=O)c5)cc4n3)cc2)cc1` [Example 38, 4-(3-{4-[6-fluoro-7-(5-methanesulfonyl-pyridin-3-yl)-4-morpholin-4-yl-quinazolin-2-yl]-phenyl}-ureido)-N,N-dimethyl-benzamide], the IC50 in experiment [1] is less than 50 nM; on mTOR kinase it was less than 50 nM; in the experiment with PC3 cells it was less than 100 nM.

For the compound `CN(C)C(=O)c1ccc(NC(=O)Nc2ccc(-c3nc(N4CCOCC4)c4ncc(-c5cccc(S(C)(=O)=O)c5)cc4n3)cc2)cc1` [Example 39, 4-(3-{4-[7-(3-methanesulfonyl-phenyl)-4-morpholin-4-yl-pyrido[3,2-d]pyrimidin-2-yl]-phenyl}-ureido)-N,N-dimethyl-benzamide], the IC50 in experiment [1] is less than 50 nM; on mTOR kinase, less than 50 nM; in the experiment with PC3 cells, less than 100 nM.

For the compound `Cc1ccc(-c2cnc3c(N4CCOCC4)nc(-c4ccc(NC(=O)Nc5ccc(C(=O)N(C)C)cc5)cc4)nc3c2)o1` [Example 43, N,N-dimethyl-4-(3-{4-[7-(5-methyl-furan-2-yl)-4-morpholin-4-yl-pyrido[3,2-d]pyrimidin-2-yl]-phenyl}-ureido)-benzamide], the figures for the IC50 (in experiment [1]; at mTOR kinase; in the experiment on PC3 cells) were less than 50 nM, less than 50 nM and 100 to 500 nM, respectively.

`CN(C)C(=O)c1ccc(NC(=O)Nc2ccc(-c3nc(N4CCOCC4)c4ccc(-c5cccc(CO)c5)cc4n3)cc2)cc1` [Example 45, 4-(3-{4-[7-(3-hydroxymethyl-phenyl)-4-morpholin-4-yl-quinazolin-2-yl]-phenyl}-ureido)-N,N-dimethyl-benzamide]: the IC50 is less than 50 nM in experiment [1], less than 50 nM on mTOR kinase and less than 100 nM in the experiment with PC3 cells.

On to `CN(C)C(=O)c1ccc(NC(=O)Nc2ccc(-c3nc(N4CCOCC4)c4ccc(-c5ccsc5)cc4n3)cc2)cc1` [Example 52, N,N-dimethyl-4-{3-[4-(4-morpholin-4-yl-7-thiophen-3-yl-quinazolin-2-yl)-phenyl]-ureido}-benzamide], for which the IC50 in experiment [1] is less than 50 nM; at mTOR kinase it was 50 to 200 nM; with PC3 cells, 100 to 500 nM.

Regarding `CN(C)C(=O)c1ccc(NC(=O)Nc2ccc(-c3nc(N4CCOCC4)c4ccc(-c5ccoc5)cc4n3)cc2)cc1` [Example 53, 4-{3-[4-(7-furan-3-yl-4-morpholin-4-yl-quinazolin-2-yl)-phenyl]-ureido}-N,N-dimethyl-benzamide], the figures for the IC50 (in experiment [1]; on mTOR kinase; with PC3 cells) were 50 to 200 nM, 50 to 200 nM and 100 to 500 nM, respectively.

As to `CN(C)C(=O)c1ccc(NC(=O)Nc2ccc(-c3nc(N4CCOCC4)c4ccc(-c5ccncc5)cc4n3)cc2)cc1` [Example 58, N,N-dimethyl-4-{3-[4-(4-morpholin-4-yl-7-pyridin-4-yl-quinazolin-2-yl)-phenyl]-ureido}-benzamide], the IC50 in experiment [1] is less than 50 nM; on mTOR kinase, less than 50 nM; in the experiment with PC3 cells, 501 to 5000 nM.

With `CN(C)C(=O)c1ccc(NC(=O)Nc2ccc(-c3nc(N4CCOCC4)c4ccc(-c5cnc6ccccc6c5)cc4n3)cc2)cc1` [Example 59, N,N-dimethyl-4-{3-[4-(4-morpholin-4-yl-7-quinolin-3-yl-quinazolin-2-yl)-phenyl]-ureido}-benzamide], the IC50 in experiment [1] is less than 50 nM; on mTOR kinase, less than 50 nM; in the experiment on PC3 cells, less than 100 nM.

Turning to `COc1ccc(-c2ccc3c(N4CCOCC4)nc(-c4ccc(NC(=O)Nc5ccc(C(=O)N(C)C)cc5)cc4)nc3c2)cn1` [Example 60, 4-(3-{4-[7-(6-methoxy-pyridin-3-yl)-4-morpholin-4-yl-quinazolin-2-yl]-phenyl}-ureido)-N,N-dimethyl-benzamide], the IC50 in experiment [1] was less than 50 nM; on mTOR kinase, less than 50 nM; in the experiment on PC3 cells, 100 to 500 nM.

`CN1CCN(C(=O)c2ccc(NC(=O)Nc3ccc(-c4nc(N5CCOCC5)c5ncc(-c6cncnc6)cc5n4)cc3)cc2)CC1` [Example 67, 1-[4-(4-methyl-piperazine-1-carbonyl)-phenyl]-3-[4-(4-morpholin-4-yl-7-pyrimidin-5-yl-pyrido[3,2-d]pyrimidin-2-yl)-phenyl]-urea]: the results for the IC50 (in experiment [1]; on mTOR kinase; in the experiment with PC3 cells) were less than 50 nM, less than 50 nM and 100 to 500 nM, respectively.

With `CN(C)C(=O)c1ccc(NC(=O)Nc2ccc(-c3nc(N4CCOCC4)c4ccc(-c5ccnc(F)c5)cc4n3)cc2)cc1` [Example 68, 4-(3-{4-[7-(2-fluoro-pyridin-4-yl)-4-morpholin-4-yl-quinazolin-2-yl]-phenyl}-ureido)-N,N-dimethyl-benzamide], the IC50 is less than 50 nM in experiment [1], less than 50 nM on mTOR kinase and 501 to 5000 nM with PC3 cells.

`Cc1ccc(-c2ccc3c(N4CCOCC4)nc(-c4ccc(NC(=O)Nc5ccc(C(=O)N6CCN(C)CC6)cc5)cc4)nc3c2)o1` [Example 70, 1-{4-[7-(5-methyl-furan-2-yl)-4-morpholin-4-yl-quinazolin-2-yl]-phenyl}-3-[4-(4-methyl-piperazine-1-carbonyl)-phenyl]-urea]: the IC50 lay in the range of 50 to 200 nM in experiment [1], 50 to 200 nM on mTOR kinase and 501 to 5000 nM with PC3 cells.

On to `CN1CCN(C(=O)c2ccc(NC(=O)Nc3ccc(-c4nc(N5CCOCC5)c5ncc(-c6cnn(C)c6)cc5n4)cc3)cc2)CC1` [Example 73, 1-[4-(4-methyl-piperazine-1-carbonyl)-phenyl]-3-{4-[7-(1-methyl-1H-pyrazol-4-yl)-4-morpholin-4-yl-pyrido[3,2-d]pyrimidin-2-yl]-phenyl}-urea], for which the figures for the IC50 (in experiment [1]; at mTOR kinase; in the experiment with PC3 cells) were less than 50 nM, less than 50 nM and 501 to 5000 nM, respectively.

In the case of `CN(C)C(=O)c1ccc(NC(=O)Nc2ccc(-c3nc(N4CCOCC4)c4ccc(-c5cccs5)cc4n3)cc2)cc1` [Example 74, N,N-dimethyl-4-{3-[4-(4-morpholin-4-yl-7-thiophen-2-yl-quinazolin-2-yl)-phenyl]-ureido}-benzamide], the IC50 in experiment [1] was less than 50 nM; at mTOR kinase, 50 to 200 nM; with PC3 cells it was 501 to 5000 nM.

As for `COc1ncc(-c2ccc3c(N4CCOCC4)nc(-c4ccc(NC(=O)Nc5ccc(C(=O)N(C)C)cc5)cc4)nc3c2)cn1` [Example 75, 4-(3-{4-[7-(2-methoxy-pyrimidin-5-yl)-4-morpholin-4-yl-quinazolin-2-yl]-phenyl}-ureido)-N,N-dimethyl-benzamide], the IC50 was less than 50 nM in experiment [1], less than 50 nM at mTOR kinase and less than 100 nM with PC3 cells.

In the case of `CN1CCN(C(=O)c2ccc(NC(=O)Nc3ccc(-c4nc(N5CCOCC5)c5ccc(-c6cncnc6)cc5n4)cc3)cc2)CC1` [Example 79, 1-[4-(4-methyl-piperazine-1-carbonyl)-phenyl]-3-[4-(4-morpholin-4-yl-7-pyrimidin-5-yl-quinazolin-2-yl)-phenyl]-urea], the figures for the IC50 (in experiment [1]; on mTOR kinase; in the experiment with PC3 cells) were 201 to 10000 nM, less than 50 nM and 501 to 5000 nM, respectively.
